# Test results: PubChem BioAssay AID270 (DTP/NCI, 2004)
# Several values for one entry are separate records, joined by “and”; a condition that tells them apart may be missing. Identical values can stand only once. Inconclusive results are not listed.
# Tested on: BDF1 mice, s.c. Lewis lung carcinoma, T/C %
# Assay: NCI In Vivo Anticancer Drug Screen. Data for tumor model Lewis Lung Carcinoma (subcutaneous) in B6D2F1 (BDF1) mice
# In short: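 Transplanted tumors grown in mice; compound vs vehicle dosing; endpoint survival or tumor size; ratio T/C.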
# [1] = endpoint: median survival time, dose: 12.5 mg/kg/injection, schedule: Q01DX009 (ip), vehicle: other, higher = longer survival
# [2] = endpoint: median survival time, dose: 25.0 mg/kg/injection, schedule: Q01DX009 (ip), vehicle: other, higher = longer survival
# [3] = endpoint: median survival time, dose: 50.0 mg/kg/injection, schedule: Q01DX009 (ip), vehicle: other, higher = longer survival
structure (smiles),measurement,setting,value
N/C(=N\Cl)C(Cl)(Cl)Cl,T/C,"endpoint: median survival time, dose: 6.25 mg/kg/injection, schedule: Q01DX009 (ip), vehicle: other, higher = longer survival",101 % of control
same,T/C,[1],110 % of control
same,T/C,[2],100 % of control
same,T/C,[3],96 % of control
Nc1ccccc1Br,T/C,"endpoint: mean tumor weight, dose: 222.0 mg/kg/injection, schedule: Q01DX011 (ip), vehicle: other, higher = larger tumour",114 % of control
same,T/C,"endpoint: mean tumor weight, dose: 333.0 mg/kg/injection, schedule: Q01DX011 (ip), vehicle: other, higher = larger tumour",102 % of control
COc1cc2c(c(OC)c1OC)-c1ccc(OC)c(=O)cc1[C@@H](NC(C)=O)CC2,T/C,"endpoint: mean tumor weight, dose: 0.06 mg/kg/injection, schedule: Q01DX011 (ip), vehicle: saline, higher = larger tumour",65 % of control
same,T/C,"endpoint: mean tumor weight, dose: 0.12 mg/kg/injection, schedule: Q01DX011 (ip), vehicle: saline, higher = larger tumour",61 % of control
same,T/C,"endpoint: mean tumor weight, dose: 0.25 mg/kg/injection, schedule: Q01DX011 (ip), vehicle: saline, higher = larger tumour",46 % of control
same,T/C,"endpoint: median survival time, dose: 0.13 mg/kg/injection, schedule: Q01DX009 (ip), vehicle: saline, higher = longer survival",100 % of control
same,T/C,"endpoint: median survival time, dose: 0.25 mg/kg/injection, schedule: Q01DX009 (ip), vehicle: saline, higher = longer survival",98 % of control
same,T/C,"endpoint: median survival time, dose: 0.5 mg/kg/injection, schedule: Q01DX009 (ip), vehicle: saline, higher = longer survival",99 % of control
same,T/C,"endpoint: median survival time, dose: 63.0 micrograms/kg/injection, schedule: Q01DX009 (ip), vehicle: saline, higher = longer survival",103 % of control
same,T/C,"endpoint: median survival time, dose: 125.0 micrograms/kg/injection, schedule: Q01DX009 (ip), vehicle: saline, higher = longer survival",106 % of control
same,T/C,"endpoint: median survival time, dose: 250.0 micrograms/kg/injection, schedule: Q01DX009 (ip), vehicle: saline, higher = longer survival",108 % of control
same,T/C,"endpoint: median survival time, dose: 500.0 micrograms/kg/injection, schedule: Q01DX009 (ip), vehicle: saline, higher = longer survival",108 % of control
same,T/C,"endpoint: median survival time, dose: 1000.0 micrograms/kg/injection, schedule: Q01DX009 (ip), vehicle: saline, higher = longer survival",91 % of control
O=C(Nc1ccc(C(=O)O)cc1)Oc1ccc(N(CCCl)CCCl)cc1,T/C,"endpoint: median survival time, dose: 6.25 mg/kg/injection, schedule: Q01DX009 (ip), vehicle: Klucel (hydroxypropylcellulose) (HPC), higher = longer survival",100 % of control
same,T/C,"endpoint: median survival time, dose: 12.5 mg/kg/injection, schedule: Q01DX009 (ip), vehicle: Klucel (hydroxypropylcellulose) (HPC), higher = longer survival",100 % of control
same,T/C,"endpoint: median survival time, dose: 25.0 mg/kg/injection, schedule: Q01DX009 (ip), vehicle: Klucel (hydroxypropylcellulose) (HPC), higher = longer survival",88 % of control
CS(=O)(=O)OCC(=O)NCCNC(=O)COS(C)(=O)=O,T/C,"endpoint: mean tumor weight, dose: 25.0 mg/kg/injection, schedule: Q01DX011 (ip), vehicle: saline, higher = larger tumour",98 % of control
same,T/C,"endpoint: mean tumor weight, dose: 50.0 mg/kg/injection, schedule: Q01DX011 (ip), vehicle: saline, higher = larger tumour",90 % of control
same,T/C,"endpoint: mean tumor weight, dose: 100.0 mg/kg/injection, schedule: Q01DX011 (ip), vehicle: saline, higher = larger tumour",94 % of control
same,T/C,"endpoint: mean tumor weight, dose: 200.0 mg/kg/injection, schedule: Q01DX011 (ip), vehicle: saline, higher = larger tumour",82 % of control
O=CC1CO1 (stereo unspecified),T/C,"endpoint: mean tumor weight, dose: 29.0 mg/kg/injection, schedule: Q01DX011 (ip), vehicle: saline, higher = larger tumour",89 % of control
same,T/C,"endpoint: mean tumor weight, dose: 44.0 mg/kg/injection, schedule: Q01DX011 (ip), vehicle: saline, higher = larger tumour",44 % of control
same,T/C,"endpoint: mean tumor weight, dose: 66.0 mg/kg/injection, schedule: Q01DX011 (ip), vehicle: saline, higher = larger tumour",75 % of control
O=C(O)c1c2c(nc3ccccc13)Cc1ccccc1-2,T/C,"endpoint: median survival time, dose: 50.0 mg/kg/injection, schedule: Q01DX009 (ip), vehicle: Klucel (hydroxypropylcellulose) (HPC), higher = longer survival",99 % of control
same,T/C,"endpoint: median survival time, dose: 100.0 mg/kg/injection, schedule: Q01DX009 (ip), vehicle: Klucel (hydroxypropylcellulose) (HPC), higher = longer survival",109 % of control
same,T/C,"endpoint: median survival time, dose: 200.0 mg/kg/injection, schedule: Q01DX009 (ip), vehicle: Klucel (hydroxypropylcellulose) (HPC), higher = longer survival",109 % of control
Cc1cc(C)c(NC(=O)N(CCCl)N=O)cc1C,T/C,"endpoint: mean tumor weight, dose: 25.0 mg/kg/injection, schedule: Q01DX001 (ip), vehicle: carboxymethylcellulose (CMC), higher = larger tumour",80 % of control
same,T/C,"endpoint: mean tumor weight, dose: 50.0 mg/kg/injection, schedule: Q01DX001 (ip), vehicle: carboxymethylcellulose (CMC), higher = larger tumour",82 % of control
same,T/C,[1],98 % of control
same,T/C,[2],98 % of control
same,T/C,[3],87 % of control
CC(C)NC(=O)c1ccc(N/N=[N+](/C)[O-])cc1,T/C,"endpoint: median survival time, dose: 6.25 mg/kg/injection, schedule: Q01DX005 (ip), vehicle: saline with Tween-80, higher = longer survival",105 % of control
same,T/C,"endpoint: median survival time, dose: 12.5 mg/kg/injection, schedule: Q01DX005 (ip), vehicle: saline with Tween-80, higher = longer survival",102 % of control
same,T/C,"endpoint: median survival time, dose: 25.0 mg/kg/injection, schedule: Q01DX005 (ip), vehicle: saline with Tween-80, higher = longer survival",106 % of control
same,T/C,"endpoint: median survival time, dose: 50.0 mg/kg/injection, schedule: Q01DX005 (ip), vehicle: saline with Tween-80, higher = longer survival",90 % of control and 103 % of control
same,T/C,"endpoint: median survival time, dose: 100.0 mg/kg/injection, schedule: Q01DX005 (ip), vehicle: saline with Tween-80, higher = longer survival",111 % of control and 112 % of control
same,T/C,"endpoint: median survival time, dose: 200.0 mg/kg/injection, schedule: Q01DX005 (ip), vehicle: saline with Tween-80, higher = longer survival",110 % of control
